According to patent US20050143468A1, “Method of treating vascular endothelial growth factor mediated vascular disorders” (priority 2002, published 2005):

Tested on: choroidal neovascularization
Assay: choroidal NV in a mouse model, topical administration
Format: in vivo
Conditions: applicant's previous findings

## NC(=O)Cc1cccc(C(=O)c2ccccc2)c1N [nepafenac]
  choroidal NV: inhibited
